Source: PubChem BioAssay (NCI)
Where “and” joins values, the source holds several entries; their conditions need not be identical. Equal values may be shown once.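 Cells were grown in 96-well plates and exposed to each compound for 48 hours at five concentrations; endpoints were interpolated linearly between bracketing concentrations, or set to the highest concentration if not reached. Here, GI50 denotes the concentration required for 50% inhibition of growth. At the TGI there is no net growth.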

What was measured:
Test in all cases: NCI tumour cell line growth inhibition, 48 h
SF-539 CNS = tested on: SF-539 CNS
RXF 393 renal = tested on: RXF 393 renal
HCT-116 colon = tested on: HCT-116 colon
LOX IMVI melanoma = tested on: LOX IMVI melanoma
786-0 renal = tested on: 786-0 renal
HOP-92 NSCLC = tested on: HOP-92 NSCLC
CAKI-1 renal = tested on: CAKI-1 renal
M14 melanoma = tested on: M14 melanoma
SK-MEL-2 melanoma = tested on: SK-MEL-2 melanoma
RXF-631 renal = tested on: RXF-631 renal
SNB-75 CNS = tested on: SNB-75 CNS
LXFL 529 NSCLC = tested on: LXFL 529 NSCLC
UO-31 renal = tested on: UO-31 renal
SF-268 CNS = tested on: SF-268 CNS
HOP-18 NSCLC = tested on: HOP-18 NSCLC
XF 498 CNS = tested on: XF 498 CNS
TK-10 renal = tested on: TK-10 renal
ACHN renal = tested on: ACHN renal
COLO 205 colon = tested on: COLO 205 colon
BT-549 breast = tested on: BT-549 breast
MALME-3M melanoma = tested on: MALME-3M melanoma
PC-3 prostate = tested on: PC-3 prostate
NCI-H23 lung = tested on: NCI-H23 lung
SF-295 CNS = tested on: SF-295 CNS
MDA-MB-231 breast = tested on: MDA-MB-231 breast
RPMI-8226 leukemia = tested on: RPMI-8226 leukemia
HOP-62 NSCLC = tested on: HOP-62 NSCLC
HCC-2998 colon = tested on: HCC-2998 colon
MCF7 breast = tested on: MCF7 breast
CCRF-CEM leukemia = tested on: CCRF-CEM leukemia
OVCAR-4 ovarian = tested on: OVCAR-4 ovarian
UACC-257 melanoma = tested on: UACC-257 melanoma
SK-MEL-28 melanoma = tested on: SK-MEL-28 melanoma
OVCAR-5 ovarian = tested on: OVCAR-5 ovarian
MOLT-4 leukemia = tested on: MOLT-4 leukemia
SN12C renal = tested on: SN12C renal
EKVX NSCLC = tested on: EKVX NSCLC
NCI/ADR-RES ovarian = tested on: NCI/ADR-RES ovarian
UACC-62 melanoma = tested on: UACC-62 melanoma
NCI-H460 lung = tested on: NCI-H460 lung
SR leukemia = tested on: SR leukemia
DU-145 prostate = tested on: DU-145 prostate
IGROV1 ovarian = tested on: IGROV1 ovarian
SK-MEL-5 melanoma = tested on: SK-MEL-5 melanoma
HT29 colon = tested on: HT29 colon
A549 NSCLC = tested on: A549 NSCLC
SW-620 colon = tested on: SW-620 colon
U251 CNS = tested on: U251 CNS
HCT-15 colon = tested on: HCT-15 colon
HL-60(TB) leukemia = tested on: HL-60(TB) leukemia
A498 renal = tested on: A498 renal
SNB-19 CNS = tested on: SNB-19 CNS
OVCAR-3 ovarian = tested on: OVCAR-3 ovarian
OVCAR-8 ovarian = tested on: OVCAR-8 ovarian
NCI-H226 lung = tested on: NCI-H226 lung
KM12 colon = tested on: KM12 colon
MDA-MB-435 = tested on: MDA-MB-435
HS 578T breast = tested on: HS 578T breast
K-562 leukemia = tested on: K-562 leukemia
T-47D breast = tested on: T-47D breast
SK-OV-3 ovarian = tested on: SK-OV-3 ovarian
MDA-N = tested on: MDA-N
NCI-H522 lung = tested on: NCI-H522 lung

For `CC(=O)OCC1OC(n2c(=S)n(-c3ccccc3)c(=S)c3ccccc32)C(OC(C)=O)C(OC(C)=O)C1OC(C)=O` (stereo not drawn), the TGI (SF-539 CNS) was over 100 µM, the GI50 (RXF 393 renal) was 38.4 µM and 4.04 µM and the TGI (RXF 393 renal) was over 100 µM. The TGI (HCT-116 colon) was over 100 µM, the GI50 (LOX IMVI melanoma) was 60.4 µM and 19.7 µM and the TGI (LOX IMVI melanoma) was over 100 µM. For the same compound, the TGI (786-0 renal) was over 100 µM, the TGI (HOP-92 NSCLC) was over 100 µM and the GI50 (CAKI-1 renal) was 50.7 µM and 20 µM. The TGI (CAKI-1 renal) was over 100 µM, the TGI (M14 melanoma) was over 100 µM and the GI50 (SK-MEL-2 melanoma) was 78.6 µM and > 35.8 µM. It also gave a TGI (SK-MEL-2 melanoma) of over 100 µM, a TGI (RXF-631 renal) of over 100 µM and a TGI (SNB-75 CNS) of over 100 µM. The GI50 (LXFL 529 NSCLC) was 62.3 µM and 8.58 µM, the TGI (LXFL 529 NSCLC) was over 100 µM and the TGI (UO-31 renal) was over 100 µM. For the same compound, the GI50 (SF-268 CNS) was 77.9 µM and 9.64 µM, the TGI (SF-268 CNS) was over 100 µM and the TGI (HOP-18 NSCLC) was over 100 µM. For the same compound, the GI50 (XF 498 CNS) was 28.3 µM and 4.4 µM, the TGI (XF 498 CNS) was over 100 µM and the TGI (TK-10 renal) was over 100 µM.

`Nc1ncc(N)c(NCC2(CO)CC(CCc3ccccc3)C2)n1` (stereo not drawn) showed a TGI (ACHN renal) of 24.5 µM, a TGI (COLO 205 colon) of 16.8 µM and a TGI (BT-549 breast) of 23.1 µM. The TGI (MALME-3M melanoma) was 23.7 µM, the TGI (SF-539 CNS) was 8.67 µM and the TGI (PC-3 prostate) was 18.9 µM. It also gave a TGI (NCI-H23 lung) of 20.8 µM, a TGI (SF-295 CNS) of 24.5 µM and a TGI (MDA-MB-231 breast) of 14.8 µM. The TGI (RXF 393 renal) was 27.8 µM, the TGI (RPMI-8226 leukemia) was 4.78 µM and the TGI (HCT-116 colon) was 20.1 µM. The TGI (HOP-62 NSCLC) was 28.3 µM, the TGI (HCC-2998 colon) was 23.7 µM and the TGI (MCF7 breast) was 15.9 µM. For the same compound, the TGI (CCRF-CEM leukemia) was 4.34 µM, the TGI (OVCAR-4 ovarian) was 20.8 µM and the TGI (UACC-257 melanoma) was 22.8 µM. For the same compound, the TGI (SK-MEL-28 melanoma) was 27.9 µM, the TGI (OVCAR-5 ovarian) was 28.5 µM and the TGI (MOLT-4 leukemia) was 8.56 µM. It also gave a TGI (LOX IMVI melanoma) of 16.6 µM, a TGI (786-0 renal) of 22.5 µM and a TGI (SN12C renal) of 24.9 µM. It also gave a TGI (EKVX NSCLC) of 22.7 µM, a TGI (NCI/ADR-RES ovarian) of 40.9 µM and a TGI (HOP-92 NSCLC) of 11.5 µM. The TGI (UACC-62 melanoma) was 21.1 µM, the TGI (CAKI-1 renal) was 21.8 µM and the TGI (NCI-H460 lung) was 30.5 µM. The TGI (SR leukemia) was 13.2 µM, the TGI (M14 melanoma) was 24 µM and the TGI (DU-145 prostate) was 24.2 µM. For the same compound, the TGI (IGROV1 ovarian) was 22.4 µM, the TGI (SK-MEL-2 melanoma) was 23 µM and the TGI (SK-MEL-5 melanoma) was 14 µM. The TGI (HT29 colon) was 20.5 µM, the TGI (A549 NSCLC) was 28.8 µM and the TGI (SNB-75 CNS) was 29.4 µM. The TGI (SW-620 colon) was 23.9 µM, the TGI (U251 CNS) was 19.6 µM and the TGI (HCT-15 colon) was 36.5 µM. For the same compound, the TGI (HL-60(TB) leukemia) was 0.987 µM, the TGI (UO-31 renal) was 15 µM and the TGI (A498 renal) was 27.4 µM. For the same compound, the TGI (SNB-19 CNS) was 23.4 µM, the TGI (OVCAR-3 ovarian) was 13.3 µM and the TGI (OVCAR-8 ovarian) was 23.7 µM. For the same compound, the TGI (NCI-H226 lung) was 18.4 µM, the TGI (KM12 colon) was 23 µM and the TGI (MDA-MB-435) was 22.9 µM. For the same compound, the TGI (SF-268 CNS) was over 43 µM, the TGI (HS 578T breast) was 36.1 µM and the TGI (K-562 leukemia) was 12.9 µM. It also gave a TGI (T-47D breast) of 9.82 µM, a TGI (SK-OV-3 ovarian) of 25.4 µM and a TGI (MDA-N) of 21.5 µM. It also gave a TGI (NCI-H522 lung) of 3.58 µM and a TGI (TK-10 renal) of 25.1 µM.
